Measurements reported in patent US20250059220A1, “SUBSTITUTED BENZOTHIOPHENE DERIVATIVES AND METHODS OF USE THEREOF” (Merck Sharp & Dohme LLC, priority 2021, published 2025).

How the values were obtained:
[1] = target: human PTPN2 (1-387) (Homo sapiens (Human), UniProt P17706); experiment: Human PTPN2 Biochemical Assay; details: DiFMUP substrate
In short: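 Fluorogenic DiFMUP hydrolysis (1 h, room temperature, read ex 360/em 460 nm) after 30 min compound preincubation with PTPN2 residues 1-387, in 50 mM Tris pH 7.4, 150 mM NaCl, 0.01% Tween20, 0.5 mM DTT. Effects scaled between buffer and enzyme controls, 4-parameter fit gives EC50.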

[2] = target: human PTPN1 (1-435) (Homo sapiens (Human), UniProt P18031); experiment: Human PTPN1 Biochemical Assay; details: DiFMUP substrate, read-out: PTP1B IC50
Sequence of human PTPN1 (1-435) (P18031 whole entry): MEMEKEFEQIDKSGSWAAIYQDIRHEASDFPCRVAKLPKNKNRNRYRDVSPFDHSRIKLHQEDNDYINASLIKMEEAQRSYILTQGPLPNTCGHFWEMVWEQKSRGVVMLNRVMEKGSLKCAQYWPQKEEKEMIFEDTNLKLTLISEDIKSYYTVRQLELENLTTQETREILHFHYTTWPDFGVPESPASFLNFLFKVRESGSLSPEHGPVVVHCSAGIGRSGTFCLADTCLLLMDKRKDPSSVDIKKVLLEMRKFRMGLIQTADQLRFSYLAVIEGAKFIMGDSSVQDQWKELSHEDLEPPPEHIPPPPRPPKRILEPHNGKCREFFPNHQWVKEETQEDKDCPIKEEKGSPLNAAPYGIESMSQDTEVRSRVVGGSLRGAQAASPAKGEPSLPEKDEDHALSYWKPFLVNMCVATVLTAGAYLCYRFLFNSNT
In short: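 Read-out is DiFMUP hydrolysis fluorescence (360 nm excitation, 460 nm emission) after 1 h at room temperature, following 30 min enzyme–compound preincubation.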

Sequence of human PTPN2 (1-387) (P17706 other isoform, or with tags, fused parts or gaps): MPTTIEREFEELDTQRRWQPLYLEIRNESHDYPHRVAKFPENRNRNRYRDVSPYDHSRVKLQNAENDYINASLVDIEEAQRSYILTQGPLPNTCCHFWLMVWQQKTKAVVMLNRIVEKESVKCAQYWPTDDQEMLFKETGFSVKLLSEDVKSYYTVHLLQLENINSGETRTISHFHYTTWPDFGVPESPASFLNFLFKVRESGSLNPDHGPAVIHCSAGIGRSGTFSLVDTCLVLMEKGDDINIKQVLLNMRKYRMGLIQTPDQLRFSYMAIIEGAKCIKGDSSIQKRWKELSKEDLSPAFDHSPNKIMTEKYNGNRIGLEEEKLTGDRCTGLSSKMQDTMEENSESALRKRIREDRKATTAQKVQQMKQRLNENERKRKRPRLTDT

Row | Compound | IC50 [1] | IC50 [2]
1 | CNC(=O)c1cc(OCCCS(C)(=O)=O)c2sc(C(F)(F)P(=O)(O)O)c(C)c2c1 [Compound 430] | 109 nM | 61.7 nM
2 | Cc1c(C(F)(F)P(=O)(O)O)sc2c(OCCCC(F)(F)F)cc(C(N)=O)cc12 [Compound 431] | 119 nM | 99.3 nM
3 | Cc1c(C(F)(F)P(=O)(O)O)sc2c(OCCCS(N)(=O)=O)cc(C(N)=O)cc12 [Compound 432] | 114 nM | 117 nM
4 | CNC(=O)c1cc(OCCCS(N)(=O)=O)c2sc(C(F)(F)P(=O)(O)O)c(C)c2c1 [Compound 433] | 33 nM | 29.3 nM
5 | Cc1c(C(F)(F)P(=O)(O)O)sc2c(OCC3CC3(F)F)cc(C(N)=O)cc12 (stereo not shown) [Compound 434] | 438 nM | 482 nM
6 | Cc1c(C(F)(F)P(=O)(O)O)sc2c(OCC3CC3(F)F)cc(C(N)=O)cc12 (stereo not shown) [Compound 435] | 130 nM | 207 nM
7 | Cc1c(C(F)(F)P(=O)(O)O)sc2c(OCCCS(C)(=O)=O)cc(-c3nc[nH]n3)cc12 [Compound 436] | 6.6 nM | 6.7 nM
8 | Cc1c(C(F)(F)P(=O)(O)O)sc2c(OCCCC(C)(C)O)cc(C(N)=O)cc12 [Compound 437] | 109 nM | 153 nM
9 | Cc1c(C(F)(F)P(=O)(O)O)sc2c(OCc3ccc(S(C)(=O)=O)cc3)cc(C(N)=O)cc12 [Compound 438] | 21.5 nM | 27.4 nM
10 | CS(=O)(=O)CCCOc1cc(-c2nc[nH]n2)cc2c(Br)c(C(F)(F)P(=O)(O)O)sc12 [Compound 439, ((3-bromo-7-(3-(methylsulfonyl)propoxy)-5-(1H-1,2,4-triazol-3-yl)benzo[b]thiophen-2-yl)difluoromethyl)phosphonic acid] | 2.5 nM | 2.5 nM
11 | NS(=O)(=O)CCCOc1cc(-c2nc[nH]n2)cc2c(Br)c(C(F)(F)P(=O)(O)O)sc12 [Compound 440] | 2.5 nM | 2.5 nM
12 | O=P(O)(O)C(F)(F)c1sc2c(OCC3CC3(F)F)cc(-c3nc[nH]n3)cc2c1Br (stereo not shown) [Compound 441] | 2.5 nM | 2.5 nM
13 | O=P(O)(O)C(F)(F)c1sc2c(OCC3CC3(F)F)cc(-c3nc[nH]n3)cc2c1Br (stereo not shown) [Compound 442] | 5.56 nM | 5 nM
14 | Cc1c(C(F)(F)P(=O)(O)O)sc2c(OCCCS(N)(=O)=O)cc(-c3nc[nH]n3)cc12 [Compound 443] | 6.17 nM | 5.1 nM
15 | CS(=O)(=O)c1ccc(COc2cc(-c3nc[nH]n3)cc3c(Br)c(C(F)(F)P(=O)(O)O)sc23)cc1 [Compound 444] | < 2.5 nM | < 2.5 nM
16 | CS(=O)(=O)CCCOc1cc(C(N)=O)cc2c(C(F)(F)F)c(C(F)(F)P(=O)(O)O)sc12 [Compound 445, ((5-carbamoyl-7-(3-(methylsulfonyl)propoxy)-3-(trifluoromethyl)benzo[b]thiophen-2-yl)difluoromethyl)phosphonic acid] | 15.5 nM | 12.7 nM
17 | NC(=O)c1cc(OCCCS(N)(=O)=O)c2sc(C(F)(F)P(=O)(O)O)c(C(F)(F)F)c2c1 [Compound 446] | 14.7 nM | 18.2 nM
18 | CCCC(CO)Oc1cc(C(N)=O)cc2c(Br)c(C(F)(F)P(=O)(O)O)sc12 (stereo not shown) [Compound 447, ((3-bromo-5-carbamoyl-7-((1-hydroxypentan-2-yl)oxy)benzo[b]thiophen-2-yl)difluoromethyl)phosphonic acid] | 500 nM | 231 nM
19 | N#CCc1cc(OCCCC(F)(F)F)c2sc(C(F)(F)P(=O)(O)O)c(Br)c2c1 [Compound 448, ((3-bromo-5-(cyanomethyl)-7-(4,4,4-trifluorobutoxy)benzo[b]thiophen-2-yl)difluoromethyl)phosphonic acid] | 316 nM | 230 nM
20 | CC(=O)NCc1cc(OCCCC(F)(F)F)c2sc(C(F)(F)P(=O)(O)O)c(Br)c2c1 [Compound 449, ((5-(acetamidomethyl)-3-bromo-7-(4,4,4-trifluorobutoxy)benzo[b]thiophen-2-yl)difluoromethyl)phosphonic acid] | 1190 nM | 812 nM
21 | CS(=O)(=O)NCc1cc(OCCCC(F)(F)F)c2sc(C(F)(F)P(=O)(O)O)c(Br)c2c1 [Compound 450, ((3-bromo-5-(methylsulfonamidomethyl)-7-(4,4,4-trifluorobutoxy)benzo[b]thiophen-2-yl)difluoromethyl)phosphonic acid] | 227 nM | 175 nM
22 | Cc1c(C(F)(F)P(=O)(O)O)sc2c(OCCCS(C)(=O)=O)cc(-c3c[nH]nn3)cc12 [Compound 451, (difluoro(3-methyl-7-(3-(methylsulfonyl)propoxy)-5-(1H-1,2,3-triazol-4-yl)benzo[b]thiophen-2-yl)methyl)phosphonic acid] | 14.6 nM | 16.5 nM
23 | Cc1ncc(-c2cc(OCCCC(F)(F)F)c3sc(C(F)(F)P(=O)(O)O)c(Br)c3c2)[nH]1 [Compound 452, ((3-bromo-5-(2-methyl-1H-imidazol-5-yl)-7-(4,4,4-trifluorobutoxy)benzo[b]thiophen-2-yl)difluoromethyl)phosphonic acid] | 63.9 nM | 71.9 nM
